Key:
VHL-ElonginBC complex = target: T1, VHL-ElonginBC complex (Homo sapiens, UniProt P40337); test: Fluorescence-polarization (FP) competitive binding assay for VHL; conditions: VHL ligands; VHL-ElonginBC complex and fluorescent probe both 5 nM; read-out: FP Binding affinity IC50
T1 construct: His-TEV (His-tag with TEV protease site) (cleaved yes); made in house; host or cells: E. coli BL21(DE3)
Protocol: Cloning and Purification of VHL-ElonginBC complex. The DNA sequence of VHL (coding for residues 54-213) was constructed by PCR and inserted into a His-TEV expression vector^58 using ligation-independent cloning. The DNA sequences of Elongin B (encoding residues 1-118) and Elongin C (encoding residues 1-96) were constmcted by PCR and inserted into pCDFDuet 1 using Gibson assembly.^59 BL21(DE3) cells were transformed simultaneously with both plasmids and grown in Terrific Broth at 37° C. until an OD600 of 1.2. The cells were induced overnight with 0.4 mM IPTG at 24° C. Pelleted cells were freeze-thawed then resuspended in 20 mM Tris HCl pH7.0, 200 mM NaCl and 0.1% β-mercaptoethanol (bME) containing protease inhibitors. The cell suspension was lysed by sonication and debris removed via centrifugation. The supernatant was incubated at 4° C. for 1 hr with Ni-NTA (Qiagen) pre-washed in 20 mM Tris-HCl pH 7.0, 200 mM NaCl and 10 mM Imidazole. The protein complex was eluted in 20 mM Tris-HCl pH 7.0, 200 mM NaCl and 300 mM Imidazole, dialyzed into 20 mM Tris-HCl pH 7.0, 150 mM NaCl, and 0.01% bME and incubated with TEV protease overnight at 4° C. The protein sample was reapplied to the Ni-NTA column to remove the His-tag. The flow through containing the VHL complex was diluted to 75 mM NaCl and applied to a HiTrap Q column (GE Healthcare). The sample was eluted with a salt gradient (0.075-1 M NaCl), concentrated and further purified on a Superdex S75 column (GE Healthcare) pre-equilibrated with 20 mM Bis-Tris 7.0, 150 mM NaCl and 1 mM DTT. Samples were aliquoted and stored at −80° C.
Binding Affinities of VHL ligands to VHL. A fluorescence-polarization (FP) competitive assay was established using VHL-ElonginBC complex and a fluorescently tagged probe (SI). The IC50 and Ki values of VHL ligands were determined in competitive binding experiments. Mixtures of 5 μL of compounds in DMSO and 95 μL of preincubated protein/tracer complex solution were added into assay plates which were incubated at rt for 60 min with gentle shaking. Final concentrations of VHL-ElonginBC complex and fluorescent probe were both 5 nM. Negative controls containing protein/probe complex only (equivalent to 0% inhibition) and positive controls containing only free probes (equivalent to 100% inhibition) were included in each assay plate. FP values in millipolarization units (mP) were measured using the Infinite M-1000 plate reader (Tecan U.S., Research Triangle Park, N.C.) in Microfluor 1 96-well, black, round-bottom plates (Thermo Scientific, Waltham, Mass.) at an excitation wavelength of 485 nm and an emission wavelength of 530 nm. IC50 values were determined by nonlinear regression fitting of the competition curves. Ki values of competitive inhibitors were obtained directly by nonlinear regression fitting, based upon the KD values of the probe and concentrations of the protein and probe in the competitive assays. All the FP competitive experiments were performed in duplicate in three independent experiments.

ERα = target: T2, ERα (Homo sapiens, UniProt P03372); test: ER degradation by Western blotting in MCF-7 cells; assay type: cell-based; design: host or cells: MCF-7; conditions: 1 nM, 10 nM and 100 nM, 4 h, linkers containing 6-9 carbon atoms
T2 sequence (P03372 1-595): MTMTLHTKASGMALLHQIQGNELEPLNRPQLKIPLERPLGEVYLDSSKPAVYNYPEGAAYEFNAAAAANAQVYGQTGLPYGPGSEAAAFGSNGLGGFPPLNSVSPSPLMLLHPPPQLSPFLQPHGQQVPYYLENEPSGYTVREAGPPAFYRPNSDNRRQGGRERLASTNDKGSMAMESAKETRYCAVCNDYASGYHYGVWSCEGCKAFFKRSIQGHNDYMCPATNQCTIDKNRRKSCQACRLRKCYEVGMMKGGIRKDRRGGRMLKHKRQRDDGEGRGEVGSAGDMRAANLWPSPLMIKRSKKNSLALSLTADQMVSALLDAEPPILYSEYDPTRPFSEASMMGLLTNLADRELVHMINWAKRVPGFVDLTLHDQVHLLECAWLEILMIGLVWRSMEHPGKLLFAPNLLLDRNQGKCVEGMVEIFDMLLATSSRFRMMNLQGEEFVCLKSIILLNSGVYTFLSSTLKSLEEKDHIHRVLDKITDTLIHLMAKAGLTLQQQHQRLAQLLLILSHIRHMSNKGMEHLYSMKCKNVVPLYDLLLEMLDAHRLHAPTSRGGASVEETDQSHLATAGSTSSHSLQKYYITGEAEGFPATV
Protocol: FIG. 1 is an image showing the Western blotting analysis of ER protein in MCF-7 cells treated with Compounds of the Disclosure and control compounds. Cells were treated with different compounds for 4 h and whole cell lysates were then analyzed by Western blotting to examine the level of ER protein. GADPH protein was used for the loading control. The numbers below the panel represent the ERα/GADPH ratio normalized with the DMSO control at 100.
FIG. 2 is an image showing the Western blotting analysis of ER protein in the MCF-7 cells treated with indicated compounds at 1 nM, 10 nM and 100 nM. MCF-7 cells were treated with different compounds for 4 h and whole cell lysates were analyzed by Western blotting to examine the level of ER protein. GADPH protein was used for the loading control. The numbers below the panel represent the ERα/GADPH ratio normalized with the DMSO control at 100.
FIG. 7 is an image showing the ERα degradation dose-response Western blotting for compound 32 at 4 h in MCF-7 cells.
FIG. 9 is an image showing the time course of ERα degradation by Western blotting by compound 32 (30 nM) and fulvestrant (30 nM) in the MCF-7 cells.
Cell Culture. Human breast cancer cell lines MCF-7 (ATCC® HTB-22™) and T47D (ATCC® HTB-133™) were purchased from the American Type Culture Collection (ATCC), Manassas, Va., and maintained and cultured in Dulbecco's Modified Eagle's medium (DMEM) containing 10% fetal bovine serum, 1 unit/ml of penicillin and 1 μg/ml of streptomycin. Cells with 3-8 passages after purchase were used in experiments as indicated.
Western Blot Analysis. Western blot analysis was performed essentially as described previously (Hu et al, 2015, PMID: 26358219). Cells treated with indicated compounds were lysed in Radioimmunoprecipitation Assay Protein Lysis and Extraction Buffer (25 mmol/L Tris.HCl, pH 7.6, 150 mmol/L NaCl, 1% Nonidet P-40, 1% sodium deoxycholate, and 0.1% sodium dodecyl sulfate) containing proteinase inhibitor cocktail (Roche Diagnostics, Mannheim, Germany). After determination of protein concentration by BCA assay (Fisher Scientific, Pittsburgh, Pa.), equal amounts of total protein were electrophoresed through 10% SDS-polyacrylamide gels. The separated protein bands were transferred onto PVDF membranes (GE Healthcare Life Sciences, Marlborough, Mass.) and blotted against different antibodies, as indicated. The human estrogen receptor a antibodies (AB16460) were purchased from Abeam, Inc., Cambridge, Mass. The membranes were reblotted with horseradish peroxidase-conjugated anti-glyceraldehyde-3-phosphate dehydrogenase antibody (G9295) from Sigma-Aldrich Corporation, St. Louis, Mo. The blots were scanned and the band intensities were quantified using GelQuant.NET software as described in biochemlabsolutions.com. The relative mean intensity of target proteins was expressed after normalization to the intensity of glyceraldehyde-3-phosphate dehydrogenase bands from individual repeats.

| SMILES | IC50 (VHL-ElonginBC complex) [µM] | ER degradation (Western blotting) (ERα) |
| --- | --- | --- |
| CC(=O)N[C@H](C(=O)N1C[C@H](O)C[C@H]1C(=O)N[C@@H](C)c1ccc(Cl)cc1)C(C)(C)C [43a, (2S,4R)-1-((S)-2-acetamido-3,3-dimethylbutanoyl)-N—((S)-1-(4-chlorophenyl)ethyl)-4-hydroxypyrrolidine-2-carboxamide] | 7.87 ± 0.642 | – |
| C#Cc1ccc([C@H](C)NC(=O)[C@@H]2C[C@@H](O)CN2C(=O)[C@@H](NC(C)=O)C(C)(C)C)cc1 [44a, (2S,4R)-1-((S)-2-acetamido-3,3-dimethylbutanoyl)-N—((S)-1-(4-ethynylphenyl)ethyl)-4-hydroxypyrrolidine-2-carboxamide] | 0.879 ± 0.097 | – |
| CC(=O)N[C@H](C(=O)N1C[C@H](O)C[C@H]1C(=O)N[C@@H](C)c1ccc(C#N)cc1)C(C)(C)C [45a, (2S,4R)-1-((S)-2-acetamido-3,3-dimethylbutanoyl)-N—((S)-1-(4-cyanophenyl)ethyl)-4-hydroxypyrrolidine-2-carboxamide] | 4.83 ± 0.418 | – |
| CC(=O)N[C@H](C(=O)N1C[C@H](O)C[C@H]1C(=O)N[C@@H](C)c1ccc(C2CC2)cc1)C(C)(C)C [46a, (2S,4R)-1-((S)-2-acetamido-3,3-dimethylbutanoyl)-N—((S)-1-(4-cyclopropylphenyl)ethyl)-4-hydroxypyrrolidine-2-carboxamide] | 6.11 ± 0.82 | – |
| CC(=O)N[C@H](C(=O)N1C[C@H](O)C[C@H]1C(=O)N[C@@H](C)c1ccc(C(C)C)cc1)C(C)(C)C [47a, (2S,4R)-1-((S)-2-acetamido-3,3-dimethylbutanoyl)-4-hydroxy-N—((S)-1-(4-isopropylphenyl)ethyl)pyrrolidine-2-carboxamide] | 41 ± 6.67 | – |
| CCN(CCCCCCCC(=O)N[C@H](C(=O)N1C[C@H](O)C[C@H]1C(=O)N[C@@H](C)c1ccc(-c2scnc2C)cc1)C(C)(C)C)CCOc1ccc(C(=O)c2c(-c3ccc(O)cc3)sc3cc(O)ccc23)cc1 [compound 15, (2S,4R)-1-((S)-2-(8-(Ethyl(2-(4-(6-hydroxy-2-(4-hydroxyphenyl)benzo[b]thiophene-3-carbonyl)phenoxy)ethyl)amino)octanamido)-3,3-dimethylbutanoyl)-4-hydroxy-N—((S)-1-(4-(4-methylthiazol-5-yl)phenyl)ethyl)pyrrolidine-2-carboxamide] | – | surprisingly effective in inducing ER degradation at concentrations as low as 1 nM |
| CCN(CCCCCC(=O)N[C@H](C(=O)N1C[C@H](O)C[C@H]1C(=O)N[C@@H](C)c1ccc(-c2scnc2C)cc1)C(C)(C)C)CCOc1ccc(C(=O)c2c(-c3ccc(O)cc3)sc3cc(O)ccc23)cc1 [compound 18, (2S,4R)-1-((S)-2-(6-(Ethyl(2-(4-(6-hydroxy-2-(4-hydroxyphenyl)benzo[b]thiophene-3-carbonyl)phenoxy)ethyl)amino)hexanamido)-3,3-dimethylbutanoyl)-4-hydroxy-N—((S)-1-(4-(4-methylthiazol-5-yl)phenyl)ethyl)pyrrolidine-2-carboxamide] | – | surprisingly effective in inducing ER degradation at concentrations as low as 1 nM |
| CCN(CCCCCCC(=O)N[C@H](C(=O)N1C[C@H](O)C[C@H]1C(=O)N[C@@H](C)c1ccc(-c2scnc2C)cc1)C(C)(C)C)CCOc1ccc(C(=O)c2c(-c3ccc(O)cc3)sc3cc(O)ccc23)cc1 [compound 19, (2S,4R)-1-((S)-2-(7-(Ethyl(2-(4-(6-hydroxy-2-(4-hydroxyphenyl)benzo[b]thiophene-3-carbonyl)phenoxy)ethyl)amino)heptanamido)-3,3-dimethylbutanoyl)-4-hydroxy-N—((S)-1-(4-(4-methylthiazol-5-yl)phenyl)ethyl)pyrrolidine-2-carboxamide] | – | surprisingly effective in inducing ER degradation at concentrations as low as 1 nM |
| CCN(CCCCCCCCC(=O)N[C@H](C(=O)N1C[C@H](O)C[C@H]1C(=O)N[C@@H](C)c1ccc(-c2scnc2C)cc1)C(C)(C)C)CCOc1ccc(C(=O)c2c(-c3ccc(O)cc3)sc3cc(O)ccc23)cc1 [compound 20, (2S,4R)-1-((S)-2-(9-(Ethyl(2-(4-(6-hydroxy-2-(4-hydroxyphenyl)benzo[b]thiophene-3-carbonyl)phenoxy)ethyl)amino)nonanamido)-3,3-dimethylbutanoyl)-4-hydroxy-N—((S)-1-(4-(4-methylthiazol-5-yl)phenyl)ethyl)pyrrolidine-2-carboxamide] | – | surprisingly effective in inducing ER degradation at concentrations as low as 1 nM |
| CCN(CCCCCCCCCC(=O)N[C@H](C(=O)N1C[C@H](O)C[C@H]1C(=O)N[C@@H](C)c1ccc(-c2scnc2C)cc1)C(C)(C)C)CCOc1ccc(C(=O)c2c(-c3ccc(O)cc3)sc3cc(O)ccc23)cc1 [compound 21, (2S,4R)-1-((S)-2-(10-(Ethyl(2-(4-(6-hydroxy-2-(4-hydroxyphenyl)benzo[b]thiophene-3-carbonyl)phenoxy)ethyl)amino)decanamido)-3,3-dimethylbutanoyl)-4-hydroxy-N—((S)-1-(4-(4-methylthiazol-5-yl)phenyl)ethyl)pyrrolidine-2-carboxamide] | – | surprisingly effective in inducing ER degradation at concentrations as low as 1 nM |
